We go through 20 molecules from patent US20040029889A1, “Heteroaryl alkyl piperazine derivatives as fatty acid oxidation inhibitors” (priority 2000, published 2004).

The test system of data set [1] is mitochondrial fatty acid oxidation using palmitoyl CoA as substrate. Nature of the data set: Palmitoyl CoA oxidation in isolated rat heart mitochondria. The note with it: 1-C14 palmitoyl CoA substrate, 15 min at 30° C., vs DMSO control; for Inhibition of mitochondrial fatty acid oxidation, % of Control, 50 μm (%): 50 μm compound; for Inhibition of mitochondrial fatty acid oxidation, % of Control, 100 μm (%): 100 μm compound. The class given is biochemical. The procedure: Rat heart mitochondria were isolated by the method of Nedergard and Cannon (Methods in Enzymol. 55, 3, 1979).
Palmitoyl CoA oxidation—The Palmityl CoA oxidation was carried out in a total volume of 100 micro liters containing the following agents: 110 mM KCl, 33 mM Tris buffer at pH 8, 2 mM KPi, 2 MM MgCl2, 0.1 MM EDTA, 14.7 microM defatted BSA, 0.5 mM malic acid, 13 mM carnitine, 1 mM ADP, 52 micrograms of mitochondrial protein, and 16 microM 1-C14 palmitoyl CoA (Sp. Activity 60 mCi/mmole; 20 microCi/ml, using 5 microliters per assay). The compounds of this invention were added in a DMSO solution at the following concentrations: 100 microM, and 50 microM. In each assay, a DMSO control was used. After 15 min at 30° C., the enzymatic reaction was centrifuged (20,000 g for 1 min), and 70 microliters of the supernatant was added to an activated reverse phase silicic acid column (approximately 0.5 ml of silicic acid). The column was eluted with 2 ml of water, and 0.5 ml of the eluent was used for scintillation counting to determine the amount of C^14 trapped as C^14 bicarbonate ion.

Data set [2] in a line: Metabolic stability in human liver S-9 fractions. To be noted: % parent remaining after 30 min at 37 C divided by average % ranolazine remaining (57%), >1.2 better, 0.8-1.2 equivalent, <0.8 less stable than ranolazine. Format: in vitro ADME. The procedure:
Metabolic Stability: As a measure of metabolic stability the compounds of this invention were incubated with human liver S-9 microsomal fractions. After, 30 minutes at 37 C, the amount of parent drug remaining was determined using LC-mass spec. The response factors for each compound was determined by establishing a standard curve and using an internal standard during the analysis of the samples. An average of five experiments for percentage of ranolazine remaining at the 30 minute time point is 57%. The compounds of this invention were assayed as described in the protocol below and the percentage of parent remaining was divided by the average % of ranolazine remaining (57%) affording a metabolic stability factor. A compound with a stability number greater than 1.2 has a better stability than ranolazine in the liver S-9 assay. A compound with a stability number between 1.2 and 0.8 has an equivalent stability in the liver S-9 assay.
The purpose of this experiment is to compare the percentages remaining for compounds of this invention with the percentage remaining for ranolazine after 30 minutes of incubation with human liver S9 fractions.
The following reagents were used; Potassium phosphate, 0.5M pH 7.4 (incubation buffer), kept at room temperature; 0.05M MgCl2 kept at 4° C.; β-Nicotinamide adenine dinucleotide phosphate, tetrasodium salt, reduced form (NADPH), 0.02M solution in water (˜16.6 mg/mL) from Sigma Lot # 79H7044 prepared on day of use. 1 mM of ranolazine or Compounds 43, 45, 47, 52, 70, 74, 76, 78, and 80 in ACN further diluted to obtain 100 μM in 10% ACN; Human S9 stock: 20 mg/mL from Gentest.
Incubation mixtures were prepared as follows:
Combine all components with incubation buffer and re-pipette 200 μL/tube+25 μL of the compound being tested along with 25 μL of S-9.
After 5 min of pre-incubation at 37° C., at 0 and 30 min after starting the reaction, a 50 μl aliquot of the incubation mixture was removed and added to 100 μL of 9:1 acetonitrile: methanol containing the internal standard.
The mixture was centrifuged and a 100 μL aliquot of the supernatant was diluted in 1 mL of solvent C (0.1% Formic Acid in water). Then samples were analyzed for change between the ratio of compound to internal standard at time zero and 30 minutes by LC/MS (injected 10 μL).
Samples were analyzed for the starting compounds and potential metabolite/s by LC/MS using an internal standard and an ODS-C18 column with a flow rate of 0.25 ml/min.

As for `Cc1cccc(C)c1NC(=O)CN1CCN(CC(O)COc2ccc3oc(-c4ccccc4)nc3c2)CC1` (centres unmarked) [Compound 60, N-(2,6-dimethylphenyl)-2-{4-[2-hydroxy-3-(2-phenyl-benzoxazol-5-yloxy)-propyl)-piperazin-1-yl}acetamide], the “Inhibition of mitochondrial fatty acid oxidation, % of Control, 50 μm (%)” value (“Inhibition … 50 μm (%)” for short) in data set [1] is 61%.

Consider `Cc1cccc(C)c1NC(=O)CN1CCN(CC(O)COc2cccc3nc(-c4ccccc4)sc23)CC1` (centres unmarked) [Compound 62], for which the “Inhibition … 50 μm (%)” value in data set [1] came out at 62%.

With `Cc1cccc(C)c1NC(=O)CN1CCN(CC(O)COc2ccnc3ccccc23)CC1` (centres unmarked) [Compound 74, N-(2,6-dimethylphenyl)-2-{4-[2-hydroxy-3-(quinolin-4-yloxy)-propyl]-piperazin-1-yl}acetamide], the “Inhibition of mitochondrial fatty acid oxidation, % of Control, 100 μm (%)” value (“Inhibition … 100 μm (%)” for short) in data set [1] was found to be 12%. Besides, in data set [2], the “Liver S9 Stability Factor” value was determined as 1.0.

`Cc1cccc(C)c1NC(=O)CN1CCN(CC(O)COc2nc3ccccc3s2)CC1` (centres unmarked) [Compound 43, 2-{4-[3-(benzothiazol-2-yloxy)-2-hydroxy-propyl]-piperazin-1-yl}-N-(2,6-dimethylphenyl)acetamide]: in data set [1], the “Inhibition … 100 μm (%)” value came to 21%. Also, the “Liver S9 Stability Factor” value in data set [2] stood at 0.6.

On to `Cc1nc2cc(OCC(O)CN3CCN(CC(=O)Nc4c(C)cccc4C)CC3)ccc2s1` (centres unmarked) [Compound 45], for which, in data set [1], the “Inhibition … 100 μm (%)” value is on record as 87%. Also, the “Liver S9 Stability Factor” value in data set [2] was determined as 0.8.

Turning to `Cc1nc2cc(OCC(O)CN3CCN(CC(=O)Nc4c(C)cccc4C)C(=O)C3)ccc2s1` (centres unmarked) [Compound 64, N-(2,6-dimethylphenyl)-2-{4-[2-hydroxy-3-(2-methyl-benzothiazol-5-yloxy)-propyl]-2-oxo-piperazin-1-yl}acetamide], the “Inhibition … 100 μm (%)” value in data set [1] was 41%.

For `Cc1nc2cc(OCC(O)CN3C(C)CN(CC(=O)Nc4c(C)cccc4C)CC3C)ccc2s1` (centres unmarked) [Compound 52, N-(2,6-dimethylphenyl)-2-{4-[2-hydroxy-3-(2-methyl-benzothiazol-5-yloxy)-propyl]-3,5-dimethyl-piperazine-1-yl}acetamide], the “Inhibition … 100 μm (%)” value in data set [1] was 95%. In addition, in data set [2], the “Liver S9 Stability Factor” value worked out at 0.5.

Regarding `Cc1cccc(C)c1NC(=O)CN1CCN(CC(O)COc2ccc3oc(-c4ccc(C(F)(F)F)cc4)nc3c2)CC1` (centres unmarked) [Compound 68, N-(2,6-dimethylphenyl)-2-(4-{2-hydroxy-3-[2-(4-trifluoromethyl-phenyl)-benzoxazol-5-yloxy]-propyl}-piperazin-1-yl)acetamide], the “Inhibition … 50 μm (%)” value in data set [1] is recorded as 68%.

Take `Cc1cccc(C)c1NC(=O)CN1CCN(CC(O)CNc2nc3ccccc3s2)CC1` (centres unmarked) [Compound 39, 2-{4-[3-(benzothiazol-2-ylamino)-2-hydroxypropyl]piperazinyl}-N-(2,6-dimethylphenyl)acetamide]: in data set [1], the “Inhibition … 100 μm (%)” value turned out to be 27%.

Consider `Cc1cccc(C)c1NC(=O)CN1CCN(CC(O)COc2cccnc2)CC1` (centres unmarked) [Compound 72, N-(2,6-dimethylphenyl)-2-{4-[2-hydroxy-3-(pyridin-3-yloxy)-propyl]-piperazin-1-yl}acetamide], for which the “Inhibition … 100 μm (%)” value in data set [1] was determined as 8%.

Turning to `Cc1cccc(C)c1NC(=O)CN1CCN(CC(O)COc2cnc3ccccc3n2)CC1` (centres unmarked) [Compound 70, N-(2,6-dimethylphenyl)-2-{4-[2-hydroxy-3-(quinoxalin-2-yloxy)-propyl]-piperazin-1-yl}acetamide], the “Liver S9 Stability Factor” value in data set [2] turned out to be 0.1.

Turning to `Cc1nc2cc(OCC(O)CN3CCN(CC(=O)Nc4ccc(O)cc4)CC3)ccc2s1` (centres unmarked) [Compound 54, 2-{14-[2-hydroxy-3-(2-methyl-benzothiazol-5-yloxy)-propyl]-piperazin-1-yl}-N-(4-hydroxy-phenyl)acetamide], in data set [1], the “Inhibition … 100 μm (%)” value is given as 81%.

In the case of `Cc1nc2ccc(OCC(O)CN3CCN(CC(=O)Nc4c(C)cccc4C)CC3)cc2s1` (centres unmarked) [Compound 49, N-(2,6-dimethylphenyl)-2-{4-[2-hydroxy-3-(2-methyl-benzothiazol-6-yloxy)-propyl]-piperazin-1-yl}aceamide], in data set [1], the “Inhibition … 100 μm (%)” value stood at 3%.

With `Cc1cccc(C)c1NC(=O)CN1CCN(CC(O)COc2cccc3[nH]c(C(N)=O)cc23)CC1` (centres unmarked) [Compound 46], in data set [1], the “Inhibition … 100 μm (%)” value amounted to 61%. In data set [2], the “Liver S9 Stability Factor” value is 1.1.

For `Cc1cccc(C)c1NC(=O)CN1CCN(CC(O)COc2ccc3oc(-c4cccc(C(F)(F)F)c4)nc3c2)CC1` (centres unmarked) [Compound 7, N-(2,6-dimethyl-phenyl)-2-(4-{2-hydroxy-3-[2-(3-trifluoromethylphenyl)benzoxazol-5-yloxy]-propyl}-piperazin-1-yl)acetamide], in data set [1], the “Inhibition … 50 μm (%)” value is reported as 77%.

On to `Cc1cccc(C)c1NC(=O)CN1CCN(CC(O)CNc2nc3ccccc3o2)CC1` (centres unmarked) [Compound 82, 2-{4-[3-(benzoxazol-2-ylamino)-2-hydroxypropyl]piperazinyl}-N-(2,6-dimethylphenyl)acetamide], for which the “Inhibition … 100 μm (%)” value in data set [1] came to 22%.

With `Cc1ccc2ccc(OCC(O)CN3CCN(CC(=O)Nc4c(C)cccc4C)CC3)cc2n1` (centres unmarked) [Compound 80, N-(2,6-dimethylphenyl)-2-{4-[2-hydroxy-3-(2-methyl-quinolin-7-yloxy)-propyl]-piperazin-1-yl}acetamide], the “Inhibition … 100 μm (%)” value in data set [1] is recorded as 22%. The “Liver S9 Stability Factor” value in data set [2] came out at 0.5.

For the molecule `Cc1cccc(C)c1NC(=O)CN1CCN(CC(O)COc2ccc3ncccc3c2)CC1` (centres unmarked) [Compound 78], in data set [1], the “Inhibition … 100 μm (%)” value was 42%. Besides, in data set [2], the “Liver S9 Stability Factor” value turned out to be 0.6.

With `Cc1cccc(C)c1NC(=O)CN1CCN(CC(O)COc2ccc3ncsc3c2)CC1` (centres unmarked) [Compound 47, 2-{4-[3-(benzothiazol-6-yloxy)2-hydroxy-propyl]-piperazin-1-yl}-N-(2,6-dimethylphenyl)-acetamide], the “Inhibition … 100 μm (%)” value in data set [1] was 70%. The “Liver S9 Stability Factor” value in data set [2] is 1.5.

As for `Cc1cccc(C)c1NC(=O)CN1CCN(CC(O)COc2cccc3cnccc23)CC1` (centres unmarked) [Compound 76, N-(2,6-dimethylphenyl)-2-{4-[2-hydroxy-3-(isoquinolin-5-yloxy)-propyl]-piperazin-1-yl}acetamide], the “Inhibition … 100 μm (%)” value in data set [1] worked out at 26%. In addition, in data set [2], the “Liver S9 Stability Factor” value stood at 0.8.
